# ChEMBL document CHEMBL1201862, “PubChem BioAssay data set” (2004)
# Values joined by “and” are separate entries in the source; they are usually repeats but may differ in a detail not shown here. Equal values may be shown once.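 Cells were grown in 96-well plates and exposed to each compound for 48 hours at five concentrations; endpoints were interpolated linearly between bracketing concentrations, or set to the highest concentration if not reached. GI50 = concentration required for 50% inhibition of growth.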 Active and inactive are the calls of the source. Cut-off read from the data, not from the text of the source: active = GI50 up to about 1.1 µM and inactive = higher.
# How the values were obtained:
# Assay in all cases: NCI-60 cell line screen, 48 h
# OVCAR-8 = test system: OVCAR-8
# EKVX = test system: EKVX
# U-251 = test system: U-251
# DLD-1 = test system: DLD-1
# LOX IMVI = test system: LOX IMVI
# HT-29 = test system: HT-29
# OVCAR-3 = test system: OVCAR-3
# ACHN = test system: ACHN
# SF-295 = test system: SF-295
# KM12 = test system: KM12
# SN12C = test system: SN12C
# Malme-3M = test system: Malme-3M
# RXF 393 = test system: RXF 393
# HOP-92 = test system: HOP-92
# SK-MEL-28 = test system: SK-MEL-28
# NCI-H226 = test system: NCI-H226
# HCT-15 = test system: HCT-15
# OVCAR-4 = test system: OVCAR-4
# OVCAR-5 = test system: OVCAR-5
# NCI-H522 = test system: NCI-H522
Compound,GI50 (OVCAR-8),GI50 (EKVX),GI50 (U-251),GI50 (DLD-1),GI50 (LOX IMVI),GI50 (HT-29),GI50 (OVCAR-3),GI50 (ACHN),GI50 (SF-295),GI50 (KM12),GI50 (SN12C),GI50 (Malme-3M),GI50 (RXF 393),GI50 (HOP-92),GI50 (SK-MEL-28),GI50 (NCI-H226),GI50 (HCT-15),GI50 (OVCAR-4),GI50 (OVCAR-5),GI50 (NCI-H522)
CC#CC#C/C=C1\C=CC2(OC=CC2OC(C)=O)O1 (stereo not drawn),31.4 µM (inactive) and 17.9 µM (inactive),29.9 µM (inactive) and > 40 µM (inactive),19.5 µM (inactive) and 18.5 µM (inactive),16.5 µM (inactive),30.1 µM (inactive) and 16.1 µM (inactive),16.1 µM (inactive) and 22.4 µM (inactive),32.2 µM (inactive),10.4 µM (inactive),47.8 µM (inactive) and 34.3 µM (inactive),21.7 µM (inactive) and 21.8 µM (inactive),15.7 µM (inactive) and 16.5 µM (inactive),24.8 µM (inactive) and 26.4 µM (inactive),12.6 µM (inactive),20.6 µM (inactive) and 22.3 µM (inactive),,,,,,
COc1ccc(-c2cc(O)c3cc(C)cnc3n2)cc1,4.57 µM (inactive),37 µM (inactive),,,6.5 µM (inactive),2.21 µM (inactive),,7.06 µM (inactive),,3.56 µM (inactive),5.13 µM (inactive),4.67 µM (inactive),7.94 µM (inactive),13.8 µM (inactive),28.6 µM (inactive),13 µM (inactive),3.23 µM,33.9 µM (inactive),93.8 µM (inactive),4.01 µM (inactive)
CC/C(CC(=O)CCC(=O)Nc1ccc(C)c(C)c1)=N\NC(=O)c1cc2ccccc2cc1O,21.4 µM (inactive),27.5 µM (inactive),28.8 µM (inactive),13.4 µM (inactive),16.1 µM (inactive),38.5 µM (inactive),18.6 µM (inactive),24.9 µM (inactive),37.2 µM (inactive),38.4 µM (inactive),28.3 µM (inactive),24.8 µM (inactive),15.1 µM (inactive),31.2 µM (inactive),20.7 µM (inactive),13.4 µM (inactive),13.9 µM,18.4 µM (inactive),31 µM (inactive),
COC(=N)C(C)C,,,> 100 µM (inactive),> 100 µM (inactive),> 100 µM (inactive),> 100 µM (inactive),> 100 µM (inactive),> 100 µM (inactive),> 100 µM (inactive),> 100 µM (inactive),> 100 µM (inactive),> 100 µM (inactive),> 100 µM (inactive),> 100 µM (inactive),> 100 µM (inactive),> 100 µM (inactive),> 100 µM,> 100 µM (inactive),> 100 µM (inactive),> 100 µM (inactive)
CC1=CC2=C(C=O)C(=O)[C@](C)(O)[C@@H](O)C2=CO1,> 64.7 µM (inactive),46.9 µM (inactive),25.2 µM (inactive),28.9 µM (inactive),27.7 µM (inactive),37.7 µM (inactive),1.56 µM (inactive),,35.7 µM (inactive),33.3 µM (inactive),28.6 µM (inactive),26.4 µM (inactive),16.7 µM (inactive),> 65.5 µM (inactive),25.2 µM (inactive),25.8 µM (inactive),28.8 µM,39.1 µM (inactive),> 50.8 µM (inactive),17.2 µM (inactive)
O=C1C=C2SC3C[C@@]24CC1(O)[N+]1=c2c4c(c(O)c4c2=C(C=N4)CC1)N3,0.33 µM (active),4.13 µM (inactive),1.75 µM (inactive),1.11 µM (active),0.546 µM (active),0.299 µM (active),0.206 µM (active),,1.58 µM (inactive),1.53 µM (inactive),1.22 µM (inactive),,1.35 µM (inactive),1.35 µM (inactive),1.64 µM (inactive),1.78 µM (inactive),1.64 µM,1.26 µM (inactive),2.33 µM (inactive),0.296 µM (active)
C=C1CCCC2[C@](C)(CC3=C(O)C(=O)C=C(OC)C3=O)[C@@H](C)CC[C@]12C (stereo partly drawn),4.41 µM (inactive),6.28 µM (inactive),4.06 µM (inactive),7.18 µM (inactive),4.97 µM (inactive),10.9 µM (inactive),3.53 µM (inactive),4.06 µM (inactive),2.51 µM (inactive),2.72 µM (inactive),10.5 µM (inactive),2.9 µM (inactive),2.73 µM (inactive),,3.99 µM (inactive),,2.71 µM,5.65 µM (inactive),,6.82 µM (inactive)
N#CCCN(CCC#N)c1ccc(/C=C2\N=C(c3cc([N+](=O)[O-])ccc3Cl)N(NC(=O)CC(=O)Nc3ccccc3Cl)C2=O)cc1,> 100 µM (inactive),> 100 µM (inactive),> 100 µM (inactive),> 100 µM (inactive),> 100 µM (inactive),,> 100 µM (inactive),> 100 µM (inactive),> 100 µM (inactive),> 100 µM (inactive),> 100 µM (inactive),> 100 µM (inactive),> 100 µM (inactive),> 100 µM (inactive),> 100 µM (inactive),16.1 µM (inactive),> 100 µM,> 100 µM (inactive),26.5 µM (inactive),> 100 µM (inactive)
CCOCC(=O)N(C)c1cccc2c3c(n(C)c12)CCCCC3,> 100 µM (inactive),> 100 µM (inactive),> 100 µM (inactive),> 100 µM (inactive),> 100 µM (inactive),> 100 µM (inactive),> 100 µM (inactive),,> 100 µM (inactive),> 100 µM (inactive),> 100 µM (inactive),> 100 µM (inactive),> 89.7 µM (inactive),> 94.8 µM (inactive),> 100 µM (inactive),> 100 µM (inactive),> 100 µM,> 100 µM (inactive),> 100 µM (inactive),> 100 µM (inactive)
COc1ccc(NC(=O)/C(=C/c2ccc(N(CCC#N)CCC#N)cc2)NC(=O)c2cc([N+](=O)[O-])ccc2Cl)cc1,38.9 µM (inactive),52.1 µM (inactive),> 100 µM (inactive),15.3 µM (inactive),18.4 µM (inactive),,94.4 µM (inactive),10.1 µM (inactive),19.6 µM (inactive),68.2 µM (inactive),> 100 µM (inactive),> 100 µM (inactive),> 100 µM (inactive),> 100 µM (inactive),53.5 µM (inactive),> 100 µM (inactive),4.62 µM,> 100 µM (inactive),> 100 µM (inactive),4.27 µM (inactive)
NC(CSC(=O)c1ccccc1)C(=O)O (stereo not drawn),> 100 µM (inactive),> 100 µM (inactive),> 100 µM (inactive),,> 100 µM (inactive),> 100 µM (inactive),> 100 µM (inactive),> 100 µM (inactive),> 100 µM (inactive),> 100 µM (inactive),> 100 µM (inactive),> 100 µM (inactive),> 100 µM (inactive),> 100 µM (inactive),> 100 µM (inactive),> 100 µM (inactive),> 100 µM,> 100 µM (inactive),> 100 µM (inactive),> 100 µM (inactive)
Cn1c2c(c3ccccc31)CCN(CCCN1CCN(c3ccccc3)CC1)C2=O,21.6 µM (inactive),26.7 µM (inactive),16.6 µM (inactive),19.7 µM (inactive),22.9 µM (inactive),13.8 µM (inactive),,21.6 µM (inactive),23.1 µM (inactive),,20.6 µM (inactive),,15.8 µM (inactive),15.7 µM (inactive),18.1 µM (inactive),,19.1 µM,,,14.3 µM (inactive)
CN(C)C(=S)/N=C1\SC(=N\c2ccccc2)/C(=N/c2ccccc2)N1c1ccc([N+](=O)[O-])cc1,> 100 µM (inactive),,> 100 µM (inactive),,,> 100 µM (inactive),> 100 µM (inactive),,> 100 µM (inactive),> 100 µM (inactive),> 100 µM (inactive),> 100 µM (inactive),21.8 µM (inactive),> 100 µM (inactive),> 100 µM (inactive),> 100 µM (inactive),> 100 µM,,> 100 µM (inactive),> 100 µM (inactive)
O=[N+]([O-])c1ccc(CNC2=NNS(=O)(=O)c3ccccc32)cc1,> 100 µM (inactive),> 100 µM (inactive),72.1 µM (inactive),> 100 µM (inactive),54 µM (inactive),> 100 µM (inactive),> 100 µM (inactive),> 100 µM (inactive),> 100 µM (inactive),> 100 µM (inactive),> 100 µM (inactive),> 100 µM (inactive),> 100 µM (inactive),> 100 µM (inactive),,> 100 µM (inactive),75.5 µM,> 100 µM (inactive),> 100 µM (inactive),
CC(NC(=O)C(NC(=O)CNC(=O)OC(C)(C)C)C(C)C)C(=O)Oc1c(Cl)c(Cl)c(Cl)c(Cl)c1Cl (stereo not drawn),19.4 µM (inactive),27.4 µM (inactive),21.1 µM (inactive),,15.5 µM (inactive),26.4 µM (inactive),13.2 µM (inactive),21.8 µM (inactive),14.5 µM (inactive),15.1 µM (inactive),19.2 µM (inactive),21.5 µM (inactive),17.5 µM (inactive),16.3 µM (inactive),26.6 µM (inactive),19.8 µM (inactive),17.5 µM,18.8 µM (inactive),14.7 µM (inactive),23.9 µM (inactive)
